In patent US9228121B2, “Process for the co-encapsulation of biocidally active compounds in clay minerals functionalized by nitrogen compounds” (Clariant S.A., priority 2010, dated 2016):

Legend:
[1] = tested on: Algae suspension; assay: Algae growth test on leached dry paint film; assay type: cell-based; details: ppm of BKC relatively to the paint, after leaching
Experimental: Test specimens were prepared by application of two paint coats on watercolor paper ([…]) for each biocidal composition. After application, test specimens were dried during 7 days. After drying, coated substrates were cut in 30 mm squares. The test specimens were evaluated after a leaching test where the coated substrates were leached for 8 and 24 hours in 2 L containers of water with a flow rate such that there are 6 changes of the water in a period of 24 hours. Coated substrates were dried to room temperature for 48 hours and then evaluated in terms of microbiological effectiveness. The algicidal effect on dry film was evaluated as described bellow: Inoculums were prepared with a suspension of algae species (Trentepohlia odorata, Chlorella sp and Scenedesmus quadricauda) at concentration of 10^6 cells/mL. Coated substrates were placed on the center of a pre-poured Bold's Basal Medium agar plates. A thin coat of the algae suspension was applied over the plates. Plates were incubated with humidity ≧85%, 25° C. and cycle of 12 hours light and 12 hours darkness. For each biocidal composition the test was done three times. The algae growth on the sample surface was evaluated weekly for 3 weeks using the following scale: […]

[2] = Tray test for leaching of biocides from paint film; assay type: physicochemical; details: paint with 1000 ppm biocidally active agent, 500 mL distilled water, detection limit 50 ppm
Experimental: Additionally, the leaching of biocides was evaluated through a tray test in which 50 g of the a paint formulation containing 1000 ppm of biocidally active agent was applied in the bottom of a tray (23.5×38.0 cm) each time and the painting procedure was repeated twice. The film was dried at room temperature for seven days and then 500 mL of distilled water was added to the tray, after 1, 3, 6 and 24 hours a 10 mL sample were taken and analyzed for determination of the biocides.

C12/C14-alkyldimethyl benzyl ammonium chloride [Dodigen ® 2808]
Effective concentration against algae (ppm relatively to the paint) [1]: >>2000 ppm of BKC | Effective concentration against algae (ppm relatively to the paint) ([1]; listed as neat BKC): > 2000 ppm | Tray test: biocide leached into water ([2]; 1 hour): 164 ppm | Tray test: biocide leached into water ([2]; 3 hours): 177 ppm | Tray test: biocide leached into water ([2]; 6 hours): 190 ppm | Tray test: biocide leached into water ([2]; 24 hours): 224 ppm
